Test system: T1, MaCCR1
T1 construct: full-length CDS in pET-28a, His-tagged, expressed in E. coli BL21(DE3)
Experiment: absorbance decrease of substrate, microplate reader, non-linear fit
Format: biochemical, Morus alba
Text: absorbance decrease of substrate, microplate reader, non-linear fit on MaCCR1

Km (pH and temperature of the kinetic assay not printed (optimum pH 6.0, 20 °C with feruloyl CoA)) | Km (pH and temperature of the kinetic assay not given) | SMILES
62.6 µM |  | COc1cc(/C=C/C(=O)SCCNC(=O)CCNC(=O)[C@H](O)C(C)(C)COP(=O)(O)OP(=O)(O)OC[C@H]2O[C@@H](n3cnc4c(N)ncnc43)[C@H](O)[C@@H]2OP(=O)(O)O)ccc1O [feruloyl CoA]
 | 160 µM | COc1cc(/C=C/C(=O)SCCNC(=O)CCNC(=O)[C@H](O)C(C)(C)COP(=O)(O)OP(=O)(O)OC[C@H]2O[C@@H](n3cnc4c(N)ncnc43)[C@H](O)[C@@H]2OP(=O)(O)O)cc(OC)c1O [sinapyl-CoA]

Source: article PMC11676671, “Simultaneous Down-Regulation of Dominant Cinnamoyl CoA Reductase and Cinnamyl Alcohol Dehydrogenase Dramatically Altered Lignin Content in Mulberry” (Plants, 2024)
